Test results published in US11497710B2, “Eye drop formulation and method for sustained delivery of medicament to the retina” (Chibi, Inc., priority 2018, dated 2022).

Legend:
[1] = Vitamin E acetate in rabbit aqueous humor samples; format: in vivo; settings: days 1, 4, 7, 12; quantification limit 1.0 ng/mL
[2] = Vitamin E acetate in rabbit tear samples after single 50 μL instillation; format: in vivo
Method: Subsequently, tear samples were collected using filter paper strips, and the vitamin E acetate contained in the paper strips extracted using methanol. The amount of vitamin E acetate in the methanol extracts was analyzed using LC/MS/MS by known methods.

- Vitamin E acetate in aqueous humor samples [1]: No detectable
- Time vitamin E acetate present in tears of rabbit eyes [2]: at least 12 days
- concentration at 1 day ([2]; rabbit, tears, topical, Day 1): 5250 ng/mL
- concentration at 4 day ([2]; rabbit, tears, topical, Day 4): 114 ng/mL
- concentration at 7 day ([2]; rabbit, tears, topical, Day 7): 98.6 ng/mL
- concentration at 12 day ([2]; rabbit, tears, topical, Day 12): 27.4 ng/mL
SMILES: CC(=O)Oc1c(C)c(C)c2c(c1C)CC[C@@](C)(CCC[C@H](C)CCC[C@H](C)CCCC(C)C)O2 [Vitamin E acetate, [(2R)-2,5,7,8-tetramethyl-2-[(4R,8R)-4,8,12-trimethyltridecyl]chroman-6-yl] acetate]
